Assay results published in patent publication US6458950B1, “Compounds and pharmaceutical compositions containing the same” (Shionogi & Co., Ltd., priority 1997, dated 2002).
Values after ≈ are worked out from the molar mass of the structure shown.

Columns and labels:
S. pneumoniae Type I = experiment: MIC by agar dilution method; format: cell-based; conditions: Streptococcus pneumoniae, inoculation amount 10^6 CFU/ml
Method: (§1) The minimal inhibitory concentration (MIC) was determined by an agar dilution method. That is, 1.0 ml each of an aqueous solution of a test compound diluted in series was poured into a petri dish. Trypticase soy agar (9 ml) was poured into the solution, and mixed. A suspension (about 10^6 CFU/ml) of test bacteria was smeared on the mixed agar plate.
(§2) Gram-positive bacteria; S. pyogenes C-203, S. agalactiae ATCC13813, S. pneumoniae Type I, S. pneumoniae SR16675(PC-R), S. mitis ATCC9811 Gram-negative bacteria: K. pneumoniae SR1, P. mirabilis PR-4 and P. vulgaris CN-329

P. mirabilis PR-4 = experiment: MIC by agar dilution method; format: cell-based; conditions: Proteus mirabilis, PR4, inoculation amount 10^6 CFU/ml
Method: as §1, §2

P. vulgaris CN-329 = experiment: MIC by agar dilution method; format: cell-based; conditions: Proteus vulgaris, CN329, inoculation amount 10^6 CFU/ml
Method: as §1, §2

K. pneumoniae SR1 = experiment: MIC by agar dilution method; format: cell-based; conditions: Klebsiella pneumoniae, K.pneumoniae R1, inoculation amount 10^6 CFU/ml
Method: as §1, §2

S. pyogenes C-203 = experiment: MIC by agar dilution method; format: cell-based; conditions: Streptococcus pyogenes, C203, inoculation amount 10^6 CFU/ml
Method: as §1, §2

S. agalactiae ATCC13813 = experiment: MIC by agar dilution method; format: cell-based; conditions: Streptococcus agalactiae, inoculation amount 10^6 CFU/ml
Method: as §1, §2

S. mitis ATCC9811 = experiment: MIC by agar dilution method; format: cell-based; conditions: Streptococcus mitis, inoculation amount 10^6 CFU/ml
Method: as §1, §2

[1] = tested on: S. pneumoniae SR16675(PC-R); experiment: MIC by agar dilution method; format: cell-based; conditions: Streptococcus pneumoniae, inoculation amount 10^6 CFU/ml
Method: as §1, §2

P.vulgaris GN-329 = experiment: Treating effect on infections in mouse; format: in vivo; conditions: Proteus vulgaris, GN329, P.vulgaris GN-329 infection
S.aureus Smith = experiment: Treating effect on infections in mouse; format: in vivo; conditions: Staphylococcus aureus, S.aureus Smith infection
S.pneumoniae Type I = experiment: Treating effect on infections in mouse; format: in vivo; conditions: Streptococcus pneumoniae, S.pneumoniae Type I infection
in vivo [2] = conditions: mouse
in vivo [3] = conditions: monkey
P.aeruginosa SR24 = experiment: Treating effect on infections in mouse; format: in vivo; conditions: Pseudomonas aeruginosa, P.aeruginosa SR24 infection
P.aeruginosa E-2 = experiment: Treating effect on infections in mouse; format: in vivo; conditions: Pseudomonas aeruginosa, E2, P.aeruginosa E-2 infection

| MIC (S. pneumoniae Type I) | MIC (P. mirabilis PR-4) | MIC (P. vulgaris CN-329) | MIC (K. pneumoniae SR1) | MIC (S. pyogenes C-203) | MIC (S. agalactiae ATCC13813) | MIC (S. mitis ATCC9811) | MIC [1] | half-life (in vivo [2]) | half-life (in vivo [3]) | SMILES | ED50 (P.vulgaris GN-329) | ED50 (S.aureus Smith) | ED50 (S.pneumoniae Type I) | ED50 (P.aeruginosa SR24) | ED50 (P.aeruginosa E-2) |
| --- | --- | --- | --- | --- | --- | --- | --- | --- | --- | --- | --- | --- | --- | --- | --- |
| 0.05 µg/mL (≈ 0.097 µM) | 0.1 µg/mL (≈ 0.194 µM) | 0.1 µg/mL (≈ 0.194 µM) | 0.05 µg/mL (≈ 0.097 µM) | 0.013 µg/mL (≈ 0.0252 µM) | 0.1 µg/mL (≈ 0.194 µM) | 0.1 µg/mL (≈ 0.194 µM) | 0.78 µg/mL (≈ 1.51 µM) | 23.4 min | 76.8 min | CO/N=C(\C(=O)NC1C(=O)N2C(C(=O)[O-])=C(Cn3cc[n+]4ncccc34)CSC12)c1nsc(N)n1 (centres unmarked) [Control compound (1)] | 0.81 mg/kg | 0.76 mg/kg | 0.69 mg/kg | 1.52 mg/kg | 4.73 mg/kg |
| 0.013 µg/mL (≈ 0.0198 µM) | 0.013 µg/mL (≈ 0.0198 µM) | 0.013 µg/mL (≈ 0.0198 µM) | 0.006 µg/mL (≈ 0.00915 µM) | 0.006 µg/mL (≈ 0.00915 µM) | 0.025 µg/mL (≈ 0.0381 µM) | 0.05 µg/mL (≈ 0.0763 µM) | 0.2 µg/mL (≈ 0.305 µM) |  |  | N#CNC(=O)NCc1cc(-c2cc[n+](CC3=C(C(=O)[O-])N4C(=O)C(NC(=O)/C(=N\OCF)c5nsc(N)n5)C4SC3)cc2)c[nH]1 (centres unmarked) [I-1′] |  |  |  |  |  |
